Converted amounts (≈) assume the structure as drawn. Read-outs that look alike come from different tables or passages of the source. Ends that are not written are not given here.
Tests used:
[1] = system: mouse erythrocytes; details: 256 μg/ml; cited from earlier work
[2] = system: S. enteritidis CVCC3377; type: cell-based, Salmonella enteritidis; details: CVCC3377, 18 h
Protocol: (§1) The MIC values of LfcinB17-33 derivatives against bacteria were determined by the microtiter broth dilution method. Briefly, 10 μl of serially diluted aliquots of peptides were added to each well of 96-well microtiter plates, followed by the addition of 90 μl exponential phase bacteria (10^5 CFU/ml) and incubated for 16‒18 h at 37 °C.

[3] = system: P. aeruginosa CICC21630; type: cell-based, Pseudomonas aeruginosa; details: CICC21630, 18 h
Protocol: as §1

[4] = system: S. aureus ATCC25923; type: cell-based, Staphylococcus aureus; details: ATCC25923, 18 h
Protocol: as §1

[5] = system: Salmonella typhimurium ATCC14028; type: cell-based; details: ATCC14028, 18 h
Protocol: as §1

[6] = system: Staphylococcus aureus ATCC43300; type: cell-based; details: ATCC43300, 18 h
Protocol: as §1

[7] = system: S. choleraesuis CVCC503; type: cell-based; details: CVCC503, 18 h
Protocol: as §1

[8] = system: S. pullorum CVCC1802; type: cell-based; details: CVCC1802, 18 h
Protocol: as §1

[9] = system: S. pullorum CVCC1789; type: cell-based; details: CVCC1789, 18 h
Protocol: as §1

[10] = system: Bacillus subtilis ATCC6633; type: cell-based; details: ATCC6633, 18 h
Protocol: as §1

[11] = system: Enterococcus faecium CMCC1.2136; type: cell-based; details: CMCC1.2136, 18 h
Protocol: as §1

[12] = system: Escherichia coli CVCC195; type: cell-based; details: CVCC195, 18 h
Protocol: as §1

[13] = system: Pseudomonas aeruginosa CICC10419; type: cell-based; details: CICC10419, 18 h
Protocol: as §1

[14] = system: Streptococcus suis CVCC606; type: cell-based; details: 18 h
Protocol: as §1

[15] = system: E. coli CICC21530 (serotype O157:H7); type: cell-based, Escherichia coli; details: microtiter broth dilution, 10^5 CFU/ml, 16‒18 h at 37 °C; representative of three independent experiments
Protocol: as §1

[16] = system: E. coli CVCC1515; type: cell-based, Escherichia coli; details: CVCC1515, 18 h
Protocol: as §1

[17] = system: S. aureus ATCC25923; type: in vivo
Protocol: The thigh infection protocol was performed as previously described. Female BALB/c mice (6 weeks old, 22 ± 2 g) were rendered neutropenic (neutrophils, 100/mm^3) by intraperitoneal injection with 150 and 100 mg cyclophosphamide per kg of body weight for 4 d and 1 d before infection, respectively. Mice were inoculated with 100 μl of S. aureus ATCC25923 cells (1.0 × 10^7 CFU/ml) and given a single dose (0.2 ml) of Lfcin4 or Lfcin5 (10 or 15 mg/kg of body weight) or vancomycin (10 mg/kg of body weight) by tail vein injection at 2 h post-infection. Mice were humanely euthanized by cervical dislocation at 5 and 10 h after treatment. Thighs were removed and homogenized in sterile PBS for a CFU assay for S. aureus ATCC25923.

[18] = system: LPS from E. coli O111:B4; test: LPS-induced endotoxemia model, survival; type: in vivo, mouse (C57BL/6); details: 15 mg/kg i.p. at 0.5, 8 and 24 h after LPS 30 mg/kg i.p.; followed 7 d; groups of eight mice
Protocol: Male C57BL/6 mice (8 weeks old, 22 ± 2 g) were intraperitoneally injected with 30 mg/kg of LPS (0.2 ml) from E. coli O111:B4 cells as previously described. Mice were intraperitoneally injected with Lfcin4 or Lfcin5 (10, 15 or 20 mg/kg of body weight in 0.2 ml) or colistin (15 mg/kg of body weight in 0.2 ml) at 0.5, 8 and 24 h after inoculation with LPS, respectively. Mice injected with LPS or saline only served as positive or mock-treated controls, respectively. Survival was recorded every 12 h and followed for up to 7 d.

Compound | hemolysis [1] | MIC [2] | MIC [3] | MIC [4] | MIC [5] | MIC [6] | MIC [7] | MIC [8] | MIC [9] | MIC [10] | MIC [11] | MIC [12] | MIC [13] | MIC [14] | MIC [15] | MIC [16] | decrease of bacterial count in thigh ([17]; 10 mg/kg single i.v. dose (Fig. 6B), time not restated, sentence follows the 5 h result) | S. aureus cells killed ([17]; 10 h post-treatment, 10 mg/kg single i.v. dose) | S. aureus cells killed ([17]; ATCC25923, mouse, in vivo, iv, 15 mg/kg, 10 h) | survival rate [18]
CSCC[C@H](NC(=O)[C@H](CCCNC(=N)N)NC(=O)[C@H](Cc1c[nH]c2ccccc12)NC(=O)[C@H](CCC(N)=O)NC(=O)[C@H](Cc1c[nH]c2ccccc12)NC(=O)[C@H](CCCNC(=N)N)NC(=O)[C@H](CCCNC(=N)N)NC(=O)[C@H](CS)NC(=O)[C@H](CCCCN)NC(=O)[C@@H](N)Cc1ccccc1)C(=O)N[C@@H](CCCCN)C(=O)N[C@@H](CCCCN)C(=O)N[C@@H](CC(C)C)C(=O)NCC(=O)N[C@@H](C)C(=O)O [Lfcin1] | approximately 7.5% |  |  |  |  |  |  |  |  |  |  |  |  |  |  |  |  |  |  | 
CSCC[C@H](NC(=O)[C@H](CCCNC(=N)N)NC(=O)[C@H](Cc1c[nH]c2ccccc12)NC(=O)[C@H](CCC(N)=O)NC(=O)[C@H](Cc1c[nH]c2ccccc12)NC(=O)[C@H](CCCNC(=N)N)NC(=O)[C@H](CCCNC(=N)N)NC(=O)[C@H](CS)NC(=O)[C@H](CCCCN)NC(=O)[C@@H](N)Cc1ccccc1)C(=O)N[C@@H](CCCCN)C(=O)N[C@@H](CCCCN)C(=O)N[C@@H](CC(C)C)C(=O)NCC(=O)N[C@@H](C)C(=O)N1CCC[C@H]1C(=O)N[C@@H](CO)C(=O)O [Lfcin2] |  | 15 µM (≈ 32.7 µg/mL) | >59 µM | 0.92 µM (≈ 2 µg/mL) | 29 µM (≈ 63.2 µg/mL) | >59 µM | 59 µM (≈ 129 µg/mL) | >59 µM | >59 µM | 29 µM (≈ 63.2 µg/mL) | 15 µM (≈ 32.7 µg/mL) | 15 µM (≈ 32.7 µg/mL) | >59 µM | >59 µM | 59 µM (≈ 129 µg/mL) | >59 µM |  |  |  | 
CN[C@H](CC(C)C)C(=O)N[C@H]1C(=O)N[C@@H](CC(N)=O)C(=O)N[C@H]2C(=O)N[C@H]3C(=O)N[C@H](C(=O)N[C@H](C(=O)O)c4cc(O)cc(O)c4-c4cc3ccc4O)[C@H](O)c3ccc(c(Cl)c3)Oc3cc2cc(c3O[C@@H]2O[C@H](CO)[C@@H](O)[C@H](O)[C@H]2O[C@H]2C[C@](C)(N)[C@H](O)[C@H](C)O2)Oc2ccc(cc2Cl)[C@H]1O [vancomycin, reference compound] |  |  |  |  |  |  |  |  |  |  |  |  |  |  |  |  | 0.1 log10 CFU/g | −1.2% |  | 
FKAFRWAWRMKKLAAPS [Lfcin3] |  | 1.9 µM | >61 µM | 0.95 µM | 61 µM | >61 µM | 61 µM | >61 µM | >61 µM | 15 µM | 15 µM | 31 µM | >61 µM | 61 µM | 31 µM | 31 µM |  |  |  | 
FKAFRWAWRWKKLAAPS [Lfcin5] |  | 1.9 µM | >60 µM | 0.93 µM | >30 µM | 30 µM | 60 µM | >60 µM | >60 µM | 15 µM | 7.4 µM | 30 µM | >60 µM | 60 µM | 30 µM | 60 µM |  |  | approximately 76.6% | 
FKCWRWQWRWKKLGAPS [Lfcin6] |  | 7.1 µM | >57 µM | 7.1 µM | >57 µM | >57 µM | >57 µM | >57 µM | >57 µM | 57 µM | 14 µM | 57 µM | >57 µM | >57 µM | 57 µM | 57 µM |  |  |  | 
colistin [reference compound] |  |  |  |  |  |  |  |  |  |  |  |  |  |  |  |  |  |  |  | 75%
